From article PMC12135066, “Design and Preclinical Evaluation of Novel uPAR-Targeting Radiopeptides Modified with an Albumin-Binding Entity” (Molecular Pharmaceutics, 2025)
Where two headings read alike, the source gives them in different places.

Tests used:
[1] = physchem; settings: pH 7.4
Method: The radiopeptides diluted in phosphate-buffered saline (PBS) pH 7.4 (25 μL, ∼0.5 MBq, 0.01 nmol) were added to a mixture of PBS pH 7.4 (1475 μL) and n-octanol (1500 μL). The vials were vortexed vigorously for 1 min, followed by centrifugation (560 rcf, 6 min) for phase separation. Aliquots were taken from each phase and measured in a γ-counter (1480 Wizard, PerkinElmer). The distribution coefficients were calculated as the logarithmic value of the ratio of counts per minute (cpm) measured in the n-octanol phase relative to the cpm measured in the PBS phase.
Methods: The logD value of all radiopeptides was determined in a mixture of n-octanol and phosphate
buffered saline (PBS) pH 7.4 using phase separation followed by liquid-liquid extraction.
polystyrene radioimmunoassay (RIA) tubes were prepared for each radiopeptide with 1.5 mL n-octanol
and 1.475 mL PBS pH 7.4. The RIA tubes were rigorously vortexed and subsequently let to stand so
that the phase separation could take place. The radiopeptides (50 MBq/nmol) were diluted with PBS
pH 7.4 to obtain an activity concentration of 10 MBq/0.5 mL. A volume of 25 μL of these solutions
was added to each RIA tube (25 µL, ~0.5 MBq, 0.01 nmol) followed by vortexing for 1 min.
separation was achieved by centrifugation at 560 rcf for 6 min. The activity in the n-octanol and PBS
phase, respectively, was measured in a γ-counter (Wallac Wizard 1480, PerkinElmer).
coefficients were calculated as the logarithm of the ratio of counts per minute (cpm) measured in the n-
octanol phase relative to the cpm measured in the PBS pH 7.4 phase.
as described above three independent times for each radiopeptide.

[2] = molecular target: T1, human uPAR (Homo sapiens, UniProt Q03405); experiment: uPAR-binding affinity (KD values), saturation experiments with HEK-uPAR cells; settings: saturation binding on HEK-uPAR cells, on ice (4 °C) 1 h, 1–1600 nM radiopeptide, ± AE105 40 µM; γ-counter; nonlinear regression; average ± SD, n=3
T1 construct: host or cells: HEK cells (HEK-uPAR)
T1 sequence (Q03405 23-335): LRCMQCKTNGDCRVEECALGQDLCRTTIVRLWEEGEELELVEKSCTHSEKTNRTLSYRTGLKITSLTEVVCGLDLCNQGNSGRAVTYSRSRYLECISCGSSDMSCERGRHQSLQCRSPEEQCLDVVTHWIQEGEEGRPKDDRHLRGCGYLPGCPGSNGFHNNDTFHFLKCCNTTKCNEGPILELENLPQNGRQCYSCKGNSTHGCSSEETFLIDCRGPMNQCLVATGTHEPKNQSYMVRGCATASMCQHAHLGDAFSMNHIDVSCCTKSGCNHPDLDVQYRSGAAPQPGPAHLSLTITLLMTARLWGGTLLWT
Method: To determine the uPAR-binding affinity of the radiopeptides, saturation experiments were performed using HEK-uPAR cells in 48-well plates (Supporting Information). The cells were incubated on ice for 1 h in the presence or absence of excess AE105 (final concentration of 40 μM) together with the respective radiopeptide at a concentration range of 1–1600 nM. After rinsing the cells with PBS, they were lysed with an aqueous NaOH solution (1 M, 600 μL), transferred to radioimmunoassay tubes, and measured in a γ-counter (1480 Wizard, PerkinElmer). The K D values were determined by plotting the specific binding (values of samples incubated without AE105 minus the values of samples incubated with AE105) against the molar concentration of the added peptide. A nonlinear regression analysis was performed using GraphPad Prism software (version 8.3.1). The results were expressed as average ± SD of n = 3 independently performed experiments. […]
7. Determination of uPAR-Binding Affinity (KD Values)
Purpose: The uPAR-binding affinity of the radiopeptides were determined to investigate the impact of structural changes on the receptor binding.
Methods: HEK-uPAR cells were seeded in poly-D-lysine-coated 48-well plates (0.25 × 10 6 in 0.5 mL per well) using DMEM cell culture medium with supplements. The cells were incubated at 37 °C and 5% CO2 overnight to allow adhesion and growth. After removing the supernatant, the well plates with HEK-uPAR cells were placed on ice to prevent internalization of the radiopeptides. The cells were rinsed with cold PBS (0.5 mL, pH 7.4) followed by the addition of DMEM cell culture medium without supplements (450 µL/well) in the presence or absence of AE105 ( final concentration 40 µM) as a receptor-blocking agent. The radiopeptides (5 MBq/nmol) were diluted in PBS to obtain peptide concentrations ranging from 10 ‒16000 nM. From each dilution, 50 µL were added to each well to obtain final peptide concentrations of 1 nM to 1600 nM. The cells were incubated at 4 °C for 1 h before rinsing twice with PBS (0.5 mL, pH 7.4). The cells were lysed using an aqueous NaOH solution (1 M, 600 µL) and the lysates were transferred to RIA tubes for counting the activity in a γ-counter (1480 Wizard, PerkinElmer) . The KD values were determined by plotting specific binding (total binding minus unspecific binding) against the molar concentration of the added radiopeptide using GraphPad Prism (version 8.3.1). the results were then expressed as average K D values ± SD of n = 3 independent […]
Results: The results are reported in the main article.

[3] = system: HEK-uPAR xenograft-bearing nude mice; settings: mouse, in vivo
Method: (§1) All applicable international, national, and/or institutional guidelines for the care and use of laboratory animals were followed, and the herein reported experiments were carried out according to the guidelines of the Swiss Regulations for Animal Welfare. The preclinical studies were ethically approved by the Cantonal Committee of Animal Experimentation and permitted by the responsible cantonal authorities (License No. 75721). Five-week-old female CD1/nude (Crl:CD1-Foxn ^ nu ) and female immunocompetent FVB (FVB/NCrl) mice were obtained from Charles River Laboratories (Sulzfeld, Germany). All mice were acclimatized for at least 7 days, receiving standard rodent chow ad libitum before being included in the reported studies. The CD1/nude mice were subcutaneously inoculated with HEK-uPAR cells (7 × 10^6 cells in 100 μL PBS) on the right shoulder. […] Typically, it took 3–11 weeks to reach xenograft volumes of 40–600 mm^3 at the time of testing the tissue distribution of the radiopeptides. The immunocompetent FVB mice were used for testing the in vivo stability of the radiopeptides.
(§2) The mice were injected with the radiopeptides (5 MBq, 0.5 nmol, 100 μL) in saline containing 0.05% BSA and sacrificed at 4 and 24 h after injection of the radiopeptides. Selected tissues and organs were collected, weighed, and measured with the γ-counter (1480 Wizard, PerkinElmer). […] A p-value of <0.05 was considered a statistically significant difference (GraphPad Prism software, version 8.3.1).
(§3) Decay-corrected data is shown as average ± SD of n = 3 animals of % injected activity per gram (IA/g) tissue.

[4] = in vivo; settings: female, mouse, total radioactivity
Method: as §1, §2, §3

[5] = in vitro; settings: human, plasma
Method: (§4) The radiopeptides (50 MBq/nmol) stabilized with L-ascorbic acid were diluted in mouse and human blood plasma and incubated at 37 °C. Aliquots were taken after 1, 4, and 24 h and analyzed using reversed-phase thin-layer chromatography (TLC) (Supporting Information).
(§5) aProduct peak expressed as percentage of the sum of integrated peak areas of the entire chromatogram relative to
(§6) the value obtained immediately after labeling (set as 100%), average ± standard deviation (SD) (n=3).
(§7) Stability of the Radiopeptides in Mouse and Human Blood Plasma
(§8) Purpose: The stability of the radiopeptides was assessed in mouse and human blood plasma as an
indication for their in vivo stability.
(§9) Methods: The radiopeptides (50 MBq/nmol) stabilized with L-ascorbic acid were diluted in mouse
(§10) blood plasma (Lot: 32321, Rockland Immunochemicals Inc., U.S.A.) or in human blood plasma
(§11) (Stiftung Blutspende SRK Aargau -Solothurn, Switzerland) at a concentration of 10 MBq/200 µL and
(§12) incubated at 37 °C over a 24 h time period. Control samples were prepared by diluting the radiopeptides
(§13) in saline at the same activity concentration. Aliquots of each dilution were taken after 1 h, 4 h, and 24 h
(§14) (2 µL, ~100 kBq) and investigated employing thin layer chromatography (TLC) methods on reversed-
(§15) phase TLC plates (MERCK Analytical Chromatography, TLC Silica gel 60 RP -18 F254s) as stationary
(§16) phase and a 3/7 (v/v) mixture of acetonitrile /citrate buffer (0.1 M, pH 5.5) as mobile phase. A dilution
(§17) of [177Lu]LuCl3/HCl 0.04 M (10 MBq/200 µL) was added on each TLC plate. The developed and dried
(§18) TLC plates were exposed to a phosphor screen (Super resolution screen PSR10450013, PerkinElmer)
(§19) for 1 min. The screen was read with a Cyclone Plus phosphor imager (PerkinElmer) and the peak
(§20) quantification was performed using OptiQuant Software (version 5.0).

[6] = in vitro; settings: mouse, plasma
Method: as §4, §5, §6, §7, §8
indication for their in vivo stability.
as §9, §10, §11, §12, §13, §14, §15, §16, §17, §18, §19, §20

[7] = molecular target: T1, human uPAR; settings: reported value; ref not printed (citation marks lost in b4); read-out: binding affinity to human uPAR (KD); cited from earlier work
Method: The expression pattern of uPAR makes it a relevant tumor-associated marker for targeting with diagnostic and therapeutic radiopharmaceuticals. Previously, a synthetic uPAR-binding nonapeptide, referred to as AE105, was identified using phage display methodologies and affinity maturation techniques. , The reported strong binding affinity to human uPAR (K D = 0.4 nM) made AE105 an interesting candidate for the development of nuclear imaging agents and radiotherapeutics. , AE105 was conjugated with various macrocyclic chelators to enable the coordination of copper-64, gallium-68, and lutetium-177 ...

[8] = CD1/nude (Crl:CD1-Foxn nu), 0.5 nmol, Blood
[9] = CD1/nude (Crl:CD1-Foxn nu), 0.5 nmol, HEK-uPAR xgft
[10] = CD1/nude, 5 MBq (0.5 nmol), Blood
[11] = CD1/nude, 5 MBq (0.5 nmol), Bone
[12] = CD1/nude, 5 MBq (0.5 nmol), Brain
[13] = CD1/nude, 5 MBq (0.5 nmol), Heart
[14] = CD1/nude, 5 MBq (0.5 nmol), Intestines
[15] = CD1/nude, 5 MBq (0.5 nmol), Kidneys
[16] = CD1/nude, 5 MBq (0.5 nmol), Liver
[17] = CD1/nude, 5 MBq (0.5 nmol), Lung
[18] = CD1/nude, 5 MBq (0.5 nmol), Muscle
[19] = CD1/nude, 5 MBq (0.5 nmol), Pancreas
[20] = CD1/nude, 5 MBq (0.5 nmol), Salivary glands
[21] = CD1/nude, 5 MBq (0.5 nmol), Spleen
[22] = CD1/nude, 5 MBq (0.5 nmol), Stomach
[23] = CD1/nude, 5 MBq (0.5 nmol), HEK-uPAR xgft

Row | Compound | logD [1] | Kd [2] | tissue uptake at 24 h [4, 8] | tissue uptake at 4 h [4, 10] | tissue uptake at 4 h [4, 11] | tissue uptake at 24 h [4, 11] | tissue uptake at 4 h [4, 12] | tissue uptake at 24 h [4, 12] | tissue uptake at 4 h [4, 13] | tissue uptake at 24 h [4, 13] | tissue uptake at 4 h [4, 14] | tissue uptake at 24 h [4, 14] | tissue uptake at 4 h [4, 15] | tissue uptake at 24 h [4, 15] | tissue uptake at 4 h [4, 16] | tissue uptake at 24 h [4, 16] | tissue uptake at 4 h [4, 17] | tissue uptake at 24 h [4, 17] | tissue uptake at 4 h [4, 18] | tissue uptake at 24 h [4, 18] | further results
1 | CC(C)C[C@H](NC(=O)[C@H](Cc1ccc(O)cc1)NC(=O)[C@@H](CCCNC(=N)N)NC(=O)[C@@H](CO)NC(=O)[C@H](Cc1ccccc1)NC(=O)[C@H](CC1CCCCC1)NC(=O)[C@H](CC(=O)O)NC(=O)[C@H](CCCCNC(=O)CCOCCOCCOCCOCCNC(=O)CCCc1ccc(I)cc1)NC(=O)CN1CCN(CC(=O)O)CCN(CC(=O)O)CCN(CC(=O)O)CC1)C(=O)N[C@@H](Cc1c[nH]c2ccccc12)C(=O)N[C@@H](CO)C(N)=O [[^177Lu]Lu-uPAR-02, metal not drawn] | 0.25 ± 0.02 | 32 ± 12 nM | 6 ± 0.5 %ID/g | 16 ± 1 %ID/g | 1.8 ± 0.2 %ID/g | 1.2 ± 0.1 %ID/g | 0.34 ± 0.03 %ID/g | 0.13 ± 0.02 %ID/g | 4.8 ± 0.2 %ID/g | 2.5 ± 0.3 %ID/g | 1.8 ± 0.2 %ID/g | 0.84 ± 0.13 %ID/g | 5.5 ± 0.2 %ID/g | 3.6 ± 0.2 %ID/g | 2.8 ± 0.3 %ID/g | 1.6 ± 0.2 %ID/g | 7.2 ± 0.3 %ID/g | 4 ± 0.2 %ID/g | 1.4 ± 0.1 %ID/g | 0.9 ± 0.06 %ID/g | fold higher activity retention in the HEK-uPAR xenograft than [177Lu]Lu-DOTA-AE105 [3]: over 10 fold; fold higher xenograft-to-kidney ratio than [177Lu]Lu-DOTA-AE105 [3]: > 3 fold; tissue uptake at 4 h [4, 9]: 11 ± 2 %ID/g; tissue uptake at 24 h [4, 9]: 10 ± 3 %ID/g; tissue uptake at 4 h [4, 19]: 1.8 ± 0.1 %ID/g; tissue uptake at 24 h [4, 19]: 0.92 ± 0.06 %ID/g; tissue uptake at 4 h [4, 20]: 3.2 ± 0.4 %ID/g; tissue uptake at 24 h [4, 20]: 1.8 ± 0.2 %ID/g; tissue uptake at 4 h [4, 21]: 2.2 ± 0.1 %ID/g; tissue uptake at 24 h [4, 21]: 2 ± 0.2 %ID/g; tissue uptake at 4 h [4, 22]: 1.6 ± 0.3 %ID/g; tissue uptake at 24 h [4, 22]: 0.69 ± 0.03 %ID/g; remaining at 1 h, 10 MBq/200 µL [5]: 100 ± 1%; remaining at 4 h, 10 MBq/200 µL [5]: 99 ± 1%; remaining at 24 h, 10 MBq/200 µL [5]: 99 ± 1%; remaining at 1 h, 10 MBq/200 µL [6]: 100 ± 1%; remaining at 4 h, 10 MBq/200 µL [6]: 98 ± 1%; remaining at 24 h, 10 MBq/200 µL [6]: 98 ± 2%
2 | CC(C)C[C@H](NC(=O)[C@H](Cc1ccc(O)cc1)NC(=O)[C@@H](CCCNC(=N)N)NC(=O)[C@@H](CO)NC(=O)[C@H](Cc1ccccc1)NC(=O)[C@H](CC1CCCCC1)NC(=O)[C@H](CC(=O)O)NC(=O)[C@H](CCCCNC(=O)CCOCCOCCOCCOCCNC(=O)c1ccc(CNC(=O)CCCc2ccc(I)cc2)cc1)NC(=O)CN1CCN(CC(=O)O)CCN(CC(=O)O)CCN(CC(=O)O)CC1)C(=O)N[C@@H](Cc1c[nH]c2ccccc12)C(=O)N[C@@H](CO)C(N)=O [[^177Lu]Lu-uPAR-03, metal not drawn] | 0.37 ± 0.14 | 56 ± 8 nM | 13 ± 1 %ID/g | 15 ± 1 %ID/g | 1.5 ± 0.3 %ID/g | 1.8 ± 0.3 %ID/g | 0.31 ± 0.05 %ID/g | 0.3 ± 0.01 %ID/g | 4.8 ± 0.5 %ID/g | 5.2 ± 0.1 %ID/g | 1.8 ± 0.1 %ID/g | 2 ± 0.1 %ID/g | 4.1 ± 0.3 %ID/g | 4.7 ± 0.2 %ID/g | 3.1 ± 0.4 %ID/g | 3.2 ± 0.2 %ID/g | 7.5 ± 0.5 %ID/g | 7.7 ± 0.7 %ID/g | 1.3 ± 0.1 %ID/g | 1.5 ± 0.1 %ID/g | tissue uptake at 4 h [4, 23]: 4 ± 0.3 %ID/g; tissue uptake at 24 h [4, 23]: 7.5 ± 0.2 %ID/g; tissue uptake at 4 h [4, 19]: 1.7 ± 0.1 %ID/g; tissue uptake at 24 h [4, 19]: 1.9 ± 0.2 %ID/g; tissue uptake at 4 h [4, 20]: 3.4 ± 0.4 %ID/g; tissue uptake at 24 h [4, 20]: 3.6 ± 0.2 %ID/g; tissue uptake at 4 h [4, 21]: 2.2 ± 0.2 %ID/g; tissue uptake at 24 h [4, 21]: 3 ± 0.2 %ID/g; tissue uptake at 4 h [4, 22]: 1.6 ± 0.1 %ID/g; tissue uptake at 24 h [4, 22]: 1.8 ± 0.1 %ID/g; remaining at 1 h, 10 MBq/200 µL [5]: 100 ± 1%; remaining at 4 h, 10 MBq/200 µL [5]: 99 ± 1%; remaining at 24 h, 10 MBq/200 µL [5]: 99 ± 2%; remaining at 1 h, 10 MBq/200 µL [6]: 100%; remaining at 4 h, 10 MBq/200 µL [6]: 99 ± 1%; remaining at 24 h, 10 MBq/200 µL [6]: 98 ± 1%
3 | Asp-Cha-Phe-ser-arg-Tyr-Leu-Trp-Ser (DAFSRYLWS; Printed as Asp-Cha-Phe-ser-arg-Tyr-Leu-Trp-Ser. Residue 2 is Cha (L-beta-cyclohexylalanine, written as parent Ala, as in PDB 1YWH entity 2); D-Ser4; D-Arg5; Linear; C-terminal form (acid or amide) not) [AE105] |  |  |  |  |  |  |  |  |  |  |  |  |  |  |  |  |  |  |  |  | Kd [7]: 0.4 nM
